Measurements: ChEMBL document CHEMBL1201862, “PubChem BioAssay data set” (2004)
Calls of active or inactive are those of the source.

Columns and labels:
[1] = target: T1, Apoptotic protease-activating factor 1 (Homo sapiens, UniProt O14727); type: functional
T1 sequence (O14727 whole entry): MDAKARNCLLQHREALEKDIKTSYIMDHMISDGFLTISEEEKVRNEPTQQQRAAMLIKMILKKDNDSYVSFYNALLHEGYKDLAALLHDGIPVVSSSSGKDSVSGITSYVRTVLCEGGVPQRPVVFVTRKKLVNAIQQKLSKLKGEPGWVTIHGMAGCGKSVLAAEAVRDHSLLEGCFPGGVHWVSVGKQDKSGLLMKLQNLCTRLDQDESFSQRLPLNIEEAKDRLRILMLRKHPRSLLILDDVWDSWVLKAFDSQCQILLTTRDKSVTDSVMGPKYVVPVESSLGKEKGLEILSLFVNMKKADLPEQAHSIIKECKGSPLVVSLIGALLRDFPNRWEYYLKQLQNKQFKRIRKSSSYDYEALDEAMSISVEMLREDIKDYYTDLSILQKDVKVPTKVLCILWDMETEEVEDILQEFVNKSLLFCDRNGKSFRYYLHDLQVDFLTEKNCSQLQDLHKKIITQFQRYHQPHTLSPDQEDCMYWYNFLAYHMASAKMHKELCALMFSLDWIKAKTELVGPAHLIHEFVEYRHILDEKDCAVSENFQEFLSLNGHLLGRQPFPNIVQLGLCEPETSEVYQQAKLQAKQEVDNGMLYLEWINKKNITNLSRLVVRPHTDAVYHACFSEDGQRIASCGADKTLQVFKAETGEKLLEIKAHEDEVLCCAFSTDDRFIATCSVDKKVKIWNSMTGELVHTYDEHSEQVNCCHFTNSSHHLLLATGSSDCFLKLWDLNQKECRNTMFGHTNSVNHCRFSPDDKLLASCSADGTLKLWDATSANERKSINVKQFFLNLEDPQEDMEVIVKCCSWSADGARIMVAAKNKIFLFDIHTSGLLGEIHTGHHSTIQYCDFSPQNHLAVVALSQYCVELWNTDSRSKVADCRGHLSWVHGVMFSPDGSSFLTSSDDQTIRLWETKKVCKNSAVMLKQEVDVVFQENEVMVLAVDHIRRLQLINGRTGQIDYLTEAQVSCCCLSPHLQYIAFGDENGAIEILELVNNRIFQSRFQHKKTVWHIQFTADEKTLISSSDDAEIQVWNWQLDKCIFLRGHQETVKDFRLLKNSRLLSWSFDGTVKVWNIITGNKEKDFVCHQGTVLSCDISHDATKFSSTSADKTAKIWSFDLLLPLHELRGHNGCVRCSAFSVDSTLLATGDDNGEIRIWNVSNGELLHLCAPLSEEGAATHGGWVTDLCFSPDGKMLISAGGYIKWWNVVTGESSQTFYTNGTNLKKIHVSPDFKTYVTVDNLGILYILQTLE

[2] = target: T2, Sentrin-specific protease 8 (Homo sapiens, UniProt Q96LD8); type: functional;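 note: kinetic enzyme assay of SENP8 cleaving a Nedd8 protein substrate, dose-response confirmation of screening hits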
T2 sequence (Q96LD8 whole entry): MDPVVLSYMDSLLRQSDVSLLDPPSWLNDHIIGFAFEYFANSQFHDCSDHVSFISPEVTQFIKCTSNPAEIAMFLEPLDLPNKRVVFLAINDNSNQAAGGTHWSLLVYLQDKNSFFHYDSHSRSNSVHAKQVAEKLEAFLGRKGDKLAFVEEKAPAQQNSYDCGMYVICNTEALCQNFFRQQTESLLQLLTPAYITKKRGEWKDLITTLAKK

[3] = target: T3, Sentrin-specific protease 7 (Homo sapiens, UniProt Q9BQF6); assay: inhibition of human SENP7 cleavage activity – biochemical, luminescence, SAR follow-up (AID 504497); type: functional
T3 sequence (Q9BQF6 whole entry): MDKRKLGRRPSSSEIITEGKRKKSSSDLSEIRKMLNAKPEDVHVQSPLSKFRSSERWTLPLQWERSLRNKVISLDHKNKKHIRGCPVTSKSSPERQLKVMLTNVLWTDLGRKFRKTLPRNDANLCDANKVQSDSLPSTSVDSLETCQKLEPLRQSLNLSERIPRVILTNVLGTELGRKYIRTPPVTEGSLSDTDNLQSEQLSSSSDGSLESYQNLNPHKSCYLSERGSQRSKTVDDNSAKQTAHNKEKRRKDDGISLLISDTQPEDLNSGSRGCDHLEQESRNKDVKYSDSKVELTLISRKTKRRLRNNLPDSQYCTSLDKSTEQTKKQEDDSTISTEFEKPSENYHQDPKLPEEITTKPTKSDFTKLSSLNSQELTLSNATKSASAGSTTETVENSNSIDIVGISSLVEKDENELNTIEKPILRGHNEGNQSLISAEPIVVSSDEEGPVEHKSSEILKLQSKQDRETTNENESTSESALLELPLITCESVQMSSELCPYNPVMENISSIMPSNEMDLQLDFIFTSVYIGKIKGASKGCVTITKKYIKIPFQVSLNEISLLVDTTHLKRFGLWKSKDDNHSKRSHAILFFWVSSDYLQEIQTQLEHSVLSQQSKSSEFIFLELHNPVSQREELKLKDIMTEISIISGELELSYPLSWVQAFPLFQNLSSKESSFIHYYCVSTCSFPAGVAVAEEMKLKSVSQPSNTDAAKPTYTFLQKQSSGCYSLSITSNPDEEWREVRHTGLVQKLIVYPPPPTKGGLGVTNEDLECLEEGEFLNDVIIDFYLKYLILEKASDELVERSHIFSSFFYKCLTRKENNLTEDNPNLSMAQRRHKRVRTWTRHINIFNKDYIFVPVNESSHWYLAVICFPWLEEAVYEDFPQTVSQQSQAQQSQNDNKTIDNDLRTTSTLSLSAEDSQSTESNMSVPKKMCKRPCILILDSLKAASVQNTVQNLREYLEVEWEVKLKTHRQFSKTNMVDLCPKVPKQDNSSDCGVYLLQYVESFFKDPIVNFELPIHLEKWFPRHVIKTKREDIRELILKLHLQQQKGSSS

[4] = target: Dual specificity protein phosphatase 3 (Homo sapiens, UniProt P51452); assay: VHR1 phosphatase inhibitors, primary screen, biochemical, absorbance, uHTS (AID 1654)
Chain of Dual specificity protein phosphatase 3 (P51452 whole entry): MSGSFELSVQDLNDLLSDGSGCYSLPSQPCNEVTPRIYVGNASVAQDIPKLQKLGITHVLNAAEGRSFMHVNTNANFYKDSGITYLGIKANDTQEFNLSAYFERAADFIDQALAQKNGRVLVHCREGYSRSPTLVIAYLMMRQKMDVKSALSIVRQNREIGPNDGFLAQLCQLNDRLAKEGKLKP

[5] = target: Death-associated protein kinase 3 (Homo sapiens, UniProt O43293); type: functional;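 note: measured as one member of a kinome-wide profiling panel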
Chain of Death-associated protein kinase 3 (O43293 whole entry): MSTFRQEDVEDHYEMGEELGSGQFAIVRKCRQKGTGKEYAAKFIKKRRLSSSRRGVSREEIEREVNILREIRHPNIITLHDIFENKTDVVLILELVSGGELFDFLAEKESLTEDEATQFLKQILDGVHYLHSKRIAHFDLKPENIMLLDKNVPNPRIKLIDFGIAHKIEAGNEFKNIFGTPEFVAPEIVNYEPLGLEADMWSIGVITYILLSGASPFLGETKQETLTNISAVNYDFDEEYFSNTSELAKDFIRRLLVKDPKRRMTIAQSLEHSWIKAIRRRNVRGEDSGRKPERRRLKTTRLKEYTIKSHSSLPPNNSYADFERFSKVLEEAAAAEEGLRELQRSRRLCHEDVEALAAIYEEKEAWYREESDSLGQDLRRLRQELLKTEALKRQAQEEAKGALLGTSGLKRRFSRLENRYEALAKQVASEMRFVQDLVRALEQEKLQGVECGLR

Activin receptor type-1 = Activin receptor type-1 (Homo sapiens, UniProt Q04771); assay: Navigating the Kinome. Panel member name: ACVR1; type: functional
Chain of Activin receptor type-1 (Q04771 whole entry): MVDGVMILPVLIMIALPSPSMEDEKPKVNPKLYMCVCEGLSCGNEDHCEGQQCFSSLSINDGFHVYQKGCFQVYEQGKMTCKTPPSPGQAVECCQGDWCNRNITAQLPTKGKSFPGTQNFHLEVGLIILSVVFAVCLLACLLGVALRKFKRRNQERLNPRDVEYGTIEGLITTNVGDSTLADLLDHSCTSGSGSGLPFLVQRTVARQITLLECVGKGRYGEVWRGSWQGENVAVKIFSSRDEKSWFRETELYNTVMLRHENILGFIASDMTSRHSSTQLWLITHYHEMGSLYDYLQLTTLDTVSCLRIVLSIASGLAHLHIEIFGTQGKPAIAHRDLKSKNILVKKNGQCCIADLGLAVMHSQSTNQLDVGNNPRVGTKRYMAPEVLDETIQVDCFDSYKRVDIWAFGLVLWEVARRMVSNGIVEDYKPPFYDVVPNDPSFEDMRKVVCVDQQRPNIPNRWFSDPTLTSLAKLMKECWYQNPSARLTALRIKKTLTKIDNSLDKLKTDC

[6] = target: Cyclin-dependent kinase 5 (Homo sapiens, UniProt Q00535); type: functional;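 note: CDK5 measured as one member of a kinase profiling panel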
Chain of Cyclin-dependent kinase 5 (Q00535 whole entry): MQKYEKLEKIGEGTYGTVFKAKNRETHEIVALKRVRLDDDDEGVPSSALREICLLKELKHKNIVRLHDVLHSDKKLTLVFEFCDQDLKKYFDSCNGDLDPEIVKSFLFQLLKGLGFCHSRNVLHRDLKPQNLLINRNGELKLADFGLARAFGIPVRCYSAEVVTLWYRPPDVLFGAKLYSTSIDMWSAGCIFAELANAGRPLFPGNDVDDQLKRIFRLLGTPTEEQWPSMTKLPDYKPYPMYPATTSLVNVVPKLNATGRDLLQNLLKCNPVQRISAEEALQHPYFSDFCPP

[7] = target: Tyrosine-protein kinase BTK (Homo sapiens, UniProt Q06187); type: functional
Chain of Tyrosine-protein kinase BTK (Q06187 whole entry): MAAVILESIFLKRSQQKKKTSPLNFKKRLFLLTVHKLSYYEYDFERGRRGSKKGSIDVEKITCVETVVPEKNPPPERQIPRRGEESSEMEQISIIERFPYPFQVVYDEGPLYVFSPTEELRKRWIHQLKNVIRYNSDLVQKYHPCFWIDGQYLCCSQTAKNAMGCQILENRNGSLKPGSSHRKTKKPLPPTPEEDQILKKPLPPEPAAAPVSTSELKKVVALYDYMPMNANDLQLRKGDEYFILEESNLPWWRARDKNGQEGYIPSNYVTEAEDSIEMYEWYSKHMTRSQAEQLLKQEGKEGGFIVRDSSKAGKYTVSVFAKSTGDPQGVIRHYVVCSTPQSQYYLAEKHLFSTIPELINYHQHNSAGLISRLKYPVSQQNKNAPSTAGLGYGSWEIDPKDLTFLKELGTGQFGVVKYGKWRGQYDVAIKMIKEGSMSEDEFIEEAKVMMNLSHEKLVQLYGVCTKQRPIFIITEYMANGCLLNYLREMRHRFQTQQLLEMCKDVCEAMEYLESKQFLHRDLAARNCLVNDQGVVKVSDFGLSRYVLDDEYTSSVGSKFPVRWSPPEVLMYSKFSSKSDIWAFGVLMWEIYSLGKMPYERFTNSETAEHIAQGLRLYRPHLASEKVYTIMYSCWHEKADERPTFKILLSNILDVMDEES

[8] = target: Cyclin-dependent kinase 8 (Homo sapiens, UniProt P49336); assay: Navigating the Kinome. Panel member name: CDK8; type: functional
Chain of Cyclin-dependent kinase 8 (P49336 whole entry): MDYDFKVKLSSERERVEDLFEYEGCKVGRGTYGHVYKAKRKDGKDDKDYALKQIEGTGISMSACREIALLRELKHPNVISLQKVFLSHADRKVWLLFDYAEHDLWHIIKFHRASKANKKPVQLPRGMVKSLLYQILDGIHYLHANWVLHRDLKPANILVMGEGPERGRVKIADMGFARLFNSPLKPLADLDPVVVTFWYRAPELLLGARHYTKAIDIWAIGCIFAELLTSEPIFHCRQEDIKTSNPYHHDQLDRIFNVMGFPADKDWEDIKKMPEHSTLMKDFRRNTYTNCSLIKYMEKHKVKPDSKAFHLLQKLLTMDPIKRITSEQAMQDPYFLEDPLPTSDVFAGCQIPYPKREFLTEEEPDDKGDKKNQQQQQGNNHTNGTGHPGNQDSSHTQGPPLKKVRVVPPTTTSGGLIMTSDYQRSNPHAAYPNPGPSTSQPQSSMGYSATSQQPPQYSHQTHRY

[9] = target: Calcium/calmodulin-dependent protein kinase type II subunit alpha (Homo sapiens, UniProt Q9UQM7); assay: Navigating the Kinome. Panel member name: CAMK2A; type: functional
Chain of Calcium/calmodulin-dependent protein kinase type II subunit alpha (Q9UQM7 whole entry): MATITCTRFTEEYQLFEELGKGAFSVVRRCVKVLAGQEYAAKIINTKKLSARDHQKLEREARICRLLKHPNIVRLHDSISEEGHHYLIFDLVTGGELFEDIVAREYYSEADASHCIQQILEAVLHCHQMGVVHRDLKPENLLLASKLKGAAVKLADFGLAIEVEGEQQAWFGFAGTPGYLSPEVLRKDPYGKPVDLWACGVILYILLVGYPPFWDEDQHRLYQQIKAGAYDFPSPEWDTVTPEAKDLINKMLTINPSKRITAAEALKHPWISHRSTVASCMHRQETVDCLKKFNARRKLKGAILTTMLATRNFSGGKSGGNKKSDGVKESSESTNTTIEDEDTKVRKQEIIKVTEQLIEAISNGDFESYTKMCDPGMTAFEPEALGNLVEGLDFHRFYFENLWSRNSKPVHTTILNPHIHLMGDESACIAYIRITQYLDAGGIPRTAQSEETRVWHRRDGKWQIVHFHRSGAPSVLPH

[10] = target: Mitogen-activated protein kinase 9 (Homo sapiens, UniProt P45984); type: functional;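 note: value from a kinome panel profiling assay, MAPK9 panel entry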
Chain of Mitogen-activated protein kinase 9 (P45984 whole entry): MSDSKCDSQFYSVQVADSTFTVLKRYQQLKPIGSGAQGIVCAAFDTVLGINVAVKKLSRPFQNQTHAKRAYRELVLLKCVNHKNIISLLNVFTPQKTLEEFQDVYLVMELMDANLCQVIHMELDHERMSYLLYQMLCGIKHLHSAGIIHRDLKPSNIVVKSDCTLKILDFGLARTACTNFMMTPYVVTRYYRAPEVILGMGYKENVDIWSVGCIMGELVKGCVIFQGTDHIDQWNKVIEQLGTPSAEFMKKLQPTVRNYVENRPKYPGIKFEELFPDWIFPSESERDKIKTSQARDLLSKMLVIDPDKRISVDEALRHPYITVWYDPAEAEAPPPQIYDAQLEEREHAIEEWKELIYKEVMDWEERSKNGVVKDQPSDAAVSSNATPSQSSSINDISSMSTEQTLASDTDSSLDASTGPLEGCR

[11] = target: Macrophage-stimulating protein receptor (Homo sapiens, UniProt Q04912); assay: Navigating the Kinome. Panel member name: MST1R; type: functional
Chain of Macrophage-stimulating protein receptor (Q04912 25-304 limits assumed): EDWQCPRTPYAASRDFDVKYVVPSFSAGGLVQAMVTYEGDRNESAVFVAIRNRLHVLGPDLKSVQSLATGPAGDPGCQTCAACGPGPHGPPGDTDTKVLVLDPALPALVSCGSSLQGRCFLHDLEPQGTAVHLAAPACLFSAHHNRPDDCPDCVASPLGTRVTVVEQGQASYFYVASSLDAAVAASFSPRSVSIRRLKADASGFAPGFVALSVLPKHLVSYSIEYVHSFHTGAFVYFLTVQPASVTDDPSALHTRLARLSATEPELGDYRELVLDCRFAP
Chain of Macrophage-stimulating protein receptor (Q04912 310-1400 limits assumed): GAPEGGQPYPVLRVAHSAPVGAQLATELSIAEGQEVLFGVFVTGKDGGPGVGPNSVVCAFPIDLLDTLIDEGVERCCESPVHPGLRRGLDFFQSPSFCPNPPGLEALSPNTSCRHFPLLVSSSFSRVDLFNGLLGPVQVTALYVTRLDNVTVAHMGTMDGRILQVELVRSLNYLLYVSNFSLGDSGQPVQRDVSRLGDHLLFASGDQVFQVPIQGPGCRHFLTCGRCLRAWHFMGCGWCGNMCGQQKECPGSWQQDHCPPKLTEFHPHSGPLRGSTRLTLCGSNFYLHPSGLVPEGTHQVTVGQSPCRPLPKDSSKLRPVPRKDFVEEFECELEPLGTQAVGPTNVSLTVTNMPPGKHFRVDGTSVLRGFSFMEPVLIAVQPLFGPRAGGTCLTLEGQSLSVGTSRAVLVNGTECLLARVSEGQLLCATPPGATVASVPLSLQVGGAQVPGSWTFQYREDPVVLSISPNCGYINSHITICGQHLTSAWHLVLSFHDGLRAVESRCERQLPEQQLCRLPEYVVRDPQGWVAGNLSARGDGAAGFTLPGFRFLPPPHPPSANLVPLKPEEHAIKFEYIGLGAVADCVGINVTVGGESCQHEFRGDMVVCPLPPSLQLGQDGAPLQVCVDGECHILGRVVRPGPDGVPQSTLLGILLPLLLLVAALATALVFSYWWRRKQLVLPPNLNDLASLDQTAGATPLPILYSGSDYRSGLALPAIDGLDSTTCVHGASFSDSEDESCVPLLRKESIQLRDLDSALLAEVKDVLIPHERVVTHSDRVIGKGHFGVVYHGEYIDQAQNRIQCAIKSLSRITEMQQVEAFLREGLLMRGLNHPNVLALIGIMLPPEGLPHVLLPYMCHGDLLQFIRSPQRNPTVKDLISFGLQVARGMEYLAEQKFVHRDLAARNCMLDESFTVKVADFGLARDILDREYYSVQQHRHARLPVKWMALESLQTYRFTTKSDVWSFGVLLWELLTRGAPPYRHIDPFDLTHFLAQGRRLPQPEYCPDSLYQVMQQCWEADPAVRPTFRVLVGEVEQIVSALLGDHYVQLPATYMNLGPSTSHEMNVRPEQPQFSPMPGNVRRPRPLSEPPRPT

O=C(NNc1cc(N2CCCC2)nc(N2CCCC2)n1)c1ccc([N+](=O)[O-])cc1
active: IC50 [1] 11.9 µM | IC50 [2] 0.732 µM | IC50 [3] 2.43 µM

O=S(=O)(O)c1cccc2c(N=Nc3ccc(O)c4ncccc34)cccc12
active: IC50 [4] 2.28 µM

O=C(Cc1cccs1)Nc1nc2ccccc2s1
active: Ki [5] 5.01 µM | Ki (Activin receptor type-1) 3.16 µM | Ki [6] 1.58 µM | Ki [7] 3.16 µM | Ki [8] 0.398 µM | Ki [9] 3.16 µM | Ki [10] 3.16 µM | Ki [11] 2 µM
